Test results from patent US10532106B2 (priority 2014, dated 2020).
Numbered stars: 1 amine (or outer) side, 2 acyl side, 3 side chain; on linkers, the order of the positions; unused ones are H or OH. Bridge positions count the residues as written; N and C are the ends. Square brackets hold non-standard residues; d marks the D form. Peptide text beside a SMILES is read from it. * marks the point of attachment. 5FAM = O=C1OC2(c3ccc(O)cc3Oc3cc(O)ccc32)c2ccc(C(=O)*)cc21; 1Nal = N[C@@H](Cc1cccc2ccccc12)C(=O)O; TBMB = c1c(C[*:1])cc(C[*:3])cc1C[*:2]; Tle = CC(C)(C)[C@H](N)C(=O)O; βAla = NCCC(=O)O; Sar = CNCC(=O)O

Columns and labels:
MT1-MMP hemopexin domain [1] = target: T1, MT1-MMP hemopexin domain (Homo sapiens, UniProt P50281); test: Direct binding fluorescence polarisation (FP) assay
T1 construct: residues Cys319-Gly511 from the human gene; His6 (N); made in house; host or cells: HEK293 (transient), pEXPR-IBA42 vector
Description: Direct Binding Fluorescence Polarisation or Anisotropy Assays are performed by titrating a constant concentration of fluorescent tracer (here, the fluoresceinated bicyclic peptide to be studied) with its binding partner (here, the MT1-MMP hemopexin domain). As the concentration of binding partner increases during the titration, the polarisation signal changes in proportion to the fraction of bound and unbound material. This allows determination of […] (Kd) quantitatively. Assay data can be fit using standard ligand binding equations.
The titrant (binding partner) concentration is varied from 0.1 nM up to typically 5 μM. The range is chosen such that the maximum change in fluorescent polarisation can be observed. Buffers employed are phosphate buffered saline in the presence of 0.01% Tween. Experiments were run in black 384 well low-bind/low volume plates (Corning 3820), and the fluorescent polarisation signal was measured using a BMG Pherastar FS plate reader.
Fluorescent tracers referred to in the text are bicyclic peptides that have been fluoresceinated using 5,6-carboxyfluorescein. Fluoresceination may be performed on the N-terminal amino group of the peptide, which is separated from the bicycle core sequence by a sarcosine spacer (usually Sar5). This can be done during Fmoc solid phase synthesis or post-synthetically (after cyclisation with TBMB and purification) if the N-terminal amino group is unique to the peptide. Fluoresceination can also be performed on the C-terminus, usually on a Lysine introduced as the first C-terminal residue, which is then separated from the bicycle core sequence by a sarcosine spacer (usually Sar6). Thus, N-terminal tracers can have a molecular format described as Fluo-Gly-Sar5-A(BicycleCoreSequence), and (BicycleCoreSequence)-A-Sar6-K(Fluo) for a C-terminally fluoresceinated construct. Fluorescent tracers used in the Examples are A-(17-69)-A-Sar6-K(Fluo), A-(17-69-07)-A-Sar6-K(Fluo), and A-(17-69-12)-A-Sar6-K(Fluo). Due to the acidic nature of the 17-69 fluorescent peptides, they were typically prepared as concentrated DMSO stocks, from which dilution were prepared in 100 mM Tris pH 8 buffer.

[2] = Mouse pharmacokinetics, intravenous; type: in vivo; details: plasma, male CD1 mice, single intravenous 5.925 mg/kg
Description: Mouse pharmacokinetics were acquired using bicyclic peptide 17-69-04-N004, which was dosed to one group of 12 male CD1 mice as a single intravenous, 5.925 mg/kg doses as a 5 mL/kg bolus of a 1.19 mg/mL solution. […] Blood samples were taken from two animals per time-point, via cardiac puncture under terminal anaesthesia, at 0.08, 0.5, 1, 2 and 4 hours post-dose, and transferred to EDTA tubes for plasma generation. Plasma samples were immediately frozen at −20 C. For analysis, samples were thawed rapidly and 50 μL aliquots were treated with 3 volumes of extraction solvent (2:9:9 mixture of 10 mM ammonium bicarbonate, pH 8, acetonitrile and methanol, containing an analytical internal standard). Precipitated proteins were removed by centrifugation and the supernatant was analysed by LC-MS/MS. Quantification of the samples was by reference to a calibration line prepared in control mouse plasma. Pharmacokinetic parameters were determined by non-compartmental analysis using the software package PK Solutions 2.0 from Summit Research Services.

MT1-MMP hemopexin domain [3] = target: T1, MT1-MMP hemopexin domain; test: Competition assay using fluorescence polarisation; type: binding; details: read-out: Kd
From the text: Here, a pre-formed complex of PEX with the fluorescent PEX-binding tracer is titrated with free, non-fluoresceinated bicyclic peptide. Since all 17-69-based peptides are expected to bind at the same site, the titrant will displace the fluorescent tracer from PEX. Dissociation of the complex can be measured quantitatively, and the Kd of the competitor (titrant) to the target protein determined. The advantage of the competition method is that the affinities of non-fluoresceinated bicyclic peptides can be determined accurately and rapidly.
Subsequently, the non-fluorescent competitor bicyclic peptide (usually just the bicycle core sequence) is titrated, such that it displaces the fluorescent tracer from the target protein. The displacement of the tracer is measured and associated with a drop in fluorescence polarisation. The drop in fluorescence polarisation is proportional to the fraction of target protein bound with the non-fluorescent titrant, and thus is a measure of the affinity of titrant to target protein.
The raw data is fit to the analytical solution of the cubic equation that describes the equilibria between fluorescent tracer, titrant, and binding protein. The fit requires the value of the affinity of fluorescent tracer to the target protein, which can be determined separately by direct binding FP experiments (see previous section).

[4] = Table 2, FP method Direct Binding, read-out: Kd
[5] = Table 8, substitutions at position 4

SMILES: CC[C@H](C)[C@@H]1NC(=O)[C@H](CC(=O)O)NC(=O)[C@H](Cc2ccc(O)cc2)NC(=O)[C@H](Cc2ccccc2)NC(=O)[C@H](CC(=O)O)NC(=O)[C@H](CCC(=O)O)NC(=O)[C@@H]2CSCc3cc(cc(c3)CSC[C@@H](C(=O)N[C@@H](C)C(=O)N(C)CC(=O)N(C)CC(=O)N(C)CC(=O)N(C)CC(=O)N(C)CC(=O)N(C)CC(=O)N[C@@H](CCCCNC(=O)c3ccc4c(c3)C(=O)OC43c4ccc(O)cc4Oc4cc(O)ccc43)C(N)=O)NC1=O)CSC[C@H](NC(=O)[C@H](C)N)C(=O)N[C@@H](CCCCN)C(=O)N[C@@H](CC(N)=O)C(=O)N[C@@H](CCCNC(=N)N)C(=O)NCC(=O)N[C@@H](Cc1ccccc1)C(=O)NCC(=O)N2 [Peptide 17-69-N004, A-(17-69)-A-Sar6-K(Fl)] (H-ACKNRGFGCEDFYDICA[Sar][Sar][Sar][Sar][Sar][Sar]K(5FAM)-NH2; linker 2-9-16 via TBMB)
- Kd (MT1-MMP hemopexin domain [1]; [4]): 692 nM

SMILES: CC[C@H](C)[C@@H]1NC(=O)[C@H](CC(=O)O)NC(=O)[C@H](Cc2ccc(O)cc2)NC(=O)[C@H](Cc2ccccc2)NC(=O)[C@H](CC(=O)O)NC(=O)[C@H](CCC(=O)O)NC(=O)[C@@H]2CSCc3cc(cc(c3)CSC[C@H](NC(C)=O)C(=O)N[C@@H](Cc3ccc(O)cc3)C(=O)N[C@@H](CC(N)=O)C(=O)N[C@@H](CCC(=O)O)C(=O)N[C@@H](Cc3ccccc3)C(=O)NCC(=O)N2)CSC[C@@H](C(N)=O)NC1=O [17-69-07-N004, Ac-(17-69-07) (wildtype)]
- AUC(0-inf) [2]: 4770 ng·h/mL
- AUC(0-t) [2]: 4770 ng·h/mL
- Cmax [2]: 15800 ng/mL
- Tmax [2]: 5 min
- clearance ([2]; read-out: Clearance based on AUC 0-∞): 20.7 mL/min/kg
- half-life ([2]; read-out: Elimination Half-life): 14 min
- Vd ([2]; read-out: Volume of Distribution based on AUC 0-∞): 0.4 L/kg

SMILES: CC[C@H](C)[C@@H]1NC(=O)[C@H](CC(=O)O)NC(=O)[C@H](Cc2ccc(O)cc2)NC(=O)[C@H](Cc2ccccc2)NC(=O)[C@H](CC(=O)O)NC(=O)[C@H](CCC(=O)O)NC(=O)[C@@H]2CSCc3cc(cc(c3)CSC[C@@H](C(=O)N[C@@H](C)C(=O)N(C)CC(=O)N(C)CC(=O)N(C)CC(=O)N(C)CC(=O)N(C)CC(=O)N(C)CC(=O)N[C@@H](CCCCNC(=O)c3ccc4c(c3)C(=O)OC43c4ccc(O)cc4Oc4cc(O)ccc43)C(N)=O)NC1=O)CSC[C@H](NC(=O)[C@H](C)N)C(=O)N[C@@H](CCSC)C(=O)N[C@@H](CC(N)=O)C(=O)N[C@@H](CCC(N)=O)C(=O)N[C@@H](Cc1ccccc1)C(=O)NCC(=O)N2 [17-69-12-N005, A-(17-69-12)-A-Sar6-K(Fl)] (H-ACMNQFGCEDFYDICA[Sar][Sar][Sar][Sar][Sar][Sar]K(5FAM)-NH2; linker 2-8-15 via TBMB)
- Kd (MT1-MMP hemopexin domain [1]; [4]): 3.1 nM

SMILES: C[C@H](NC(=O)CN(C)C(=O)CN(C)C(=O)CN(C)C(=O)CN(C)C(=O)CN(C)C(=O)CN(C)C(=O)CN(C)C(=O)CN(C)C(=O)CN(C)C(=O)CN(C)C(=O)CCNC(=O)c1ccc2c(c1)C(=O)OC21c2ccc(O)cc2Oc2cc(O)ccc21)C(=O)N[C@H]1CSCc2cc3cc(c2)CSC[C@H](NC(=O)[C@@H](C)NC(=O)[C@H](Cc2cccc4ccccc24)NC(=O)[C@H](CCC(=O)O)NC(=O)[C@H](CC(N)=O)NC(=O)[C@@H](C)NC1=O)C(=O)N[C@@H](CCC(=O)O)C(=O)N[C@@H](CC(=O)O)C(=O)N[C@@H](Cc1ccccc1)C(=O)N[C@@H](Cc1ccc(O)cc1)C(=O)N[C@@H](CC(=O)O)C(=O)N[C@@H](C(C)(C)C)C(=O)N[C@H](C(N)=O)CSC3 [17-69-07-N258, Fluorescein-(bAla)-Sar10-A-(17-69-07) D-Ala1 1Nal4 D-Ala5 tBuGly11] ({5FAM-βAla}-[Sar][Sar][Sar][Sar][Sar][Sar][Sar][Sar][Sar][Sar]AC[dA]NE[1Nal][dA]CEDFYD[Tle]C-NH2; linker 12-18-25 via TBMB)
- Kd (MT1-MMP hemopexin domain [1]; Table 14, fluoresceinated derivative, read-out: V1T1-MMP (=MMP-14) (Kd, in nM)): 2.2 nM

SMILES: CC[C@H](C)[C@@H]1NC(=O)[C@H](CC(=O)O)NC(=O)[C@H](Cc2ccc(O)cc2)NC(=O)[C@H](Cc2ccccc2)NC(=O)[C@H](CC(=O)O)NC(=O)[C@H](CCC(=O)O)NC(=O)[C@@H]2CSCc3cc(cc(c3)CSC[C@@H](C(=O)N[C@@H](C)C(=O)N(C)CC(=O)N(C)CC(=O)N(C)CC(=O)N(C)CC(=O)N(C)CC(=O)N(C)CC(=O)N[C@@H](CCCCNC(=O)c3ccc4c(c3)C(=O)OC43c4ccc(O)cc4Oc4cc(O)ccc43)C(N)=O)NC1=O)CSC[C@H](NC(=O)[C@H](C)N)C(=O)N[C@@H](Cc1ccc(O)cc1)C(=O)N[C@@H](CC(N)=O)C(=O)N[C@@H](CCC(=O)O)C(=O)N[C@@H](Cc1ccccc1)C(=O)NCC(=O)N2 [17-69-07-N040, A-(17-69-07)-A-Sar6-K(Fl)] (H-ACYNEFGCEDFYDICA[Sar][Sar][Sar][Sar][Sar][Sar]K(5FAM)-NH2; linker 2-8-15 via TBMB)
- Kd (MT1-MMP hemopexin domain [1]; [4]): 0.52 nM

SMILES: CC[C@H](C)[C@@H]1NC(=O)[C@H](CC(=O)O)NC(=O)[C@H](Cc2ccc(O)cc2)NC(=O)[C@H](Cc2ccccc2)NC(=O)[C@H](CC(=O)O)NC(=O)[C@H](CCC(=O)O)NC(=O)[C@@H]2CSCc3cc(cc(c3)CSC[C@@H](C(=O)N[C@@H](C)C(N)=O)NC1=O)CSC[C@H](NC(=O)[C@H](C)N)C(=O)N[C@@H](CCSC)C(=O)N[C@@H](CC(N)=O)C(=O)N[C@@H](CCC(N)=O)C(=O)N[C@@H](Cc1ccccc1)C(=O)NCC(=O)N2 [17-69-12-N003, A-(17-69-12)-A] (H-ACMNQFGCEDFYDICA-NH2; linker 2-8-15 via TBMB)
- Kd (MT1-MMP hemopexin domain [3]; Table 3, Competition, tracer A-(17-69-07)-A-Sar6-K(Fluorescein)): 3.7 ± 2.52 nM

SMILES: CC[C@H](C)[C@@H]1NC(=O)[C@H](CC(=O)O)NC(=O)[C@H](Cc2ccc(O)cc2)NC(=O)[C@H](Cc2ccccc2)NC(=O)[C@H](CC(=O)O)NC(=O)[C@H](CCC(=O)O)NC(=O)[C@@H]2CSCc3cc(cc(c3)CSC[C@H](NC(C)=O)C(=O)N[C@@H](Cc3ccc(O)cc3)C(=O)N[C@@H](CC(N)=O)C(=O)N[C@@H](CCC(=O)O)C(=O)N[C@@H](Cc3c[nH]c4ccccc34)C(=O)NCC(=O)N2)CSC[C@@H](C(N)=O)NC1=O [17-69-44-N002, Ac-(17-69-07) Trp4] (Ac-CYNEWGCEDFYDIC-NH2; linker 1-7-14 via TBMB)
- Kd (MT1-MMP hemopexin domain [3]; [5]): 0.75 ± 0.23 nM

SMILES: CC[C@H](C)[C@@H]1NC(=O)[C@H](CC(=O)O)NC(=O)[C@H](Cc2ccc(O)cc2)NC(=O)[C@H](Cc2ccccc2)NC(=O)[C@H](CC(=O)O)NC(=O)[C@H](CCC(=O)O)NC(=O)[C@@H]2CSCc3cc(cc(c3)CSC[C@@H](C(=O)N[C@@H](C)C(N)=O)NC1=O)CSC[C@H](NC(=O)[C@H](C)N)C(=O)N[C@@H](C(C)C)C(=O)N[C@@H](CC(N)=O)C(=O)N[C@@H](CCC(=O)O)C(=O)N[C@@H](Cc1ccccc1)C(=O)NCC(=O)N2 [17-69-03-N001, A-(17-69-03)-A] (H-ACVNEFGCEDFYDICA-NH2; linker 2-8-15 via TBMB)
- Kd (MT1-MMP hemopexin domain [3]; Table 2, FP method Competition, tracer A-(17-69-07)-A-Sar6-K(Fluorescein)): 16.7 nM

SMILES: CC[C@H](C)[C@@H]1NC(=O)[C@H](CC(=O)O)NC(=O)[C@H](Cc2ccc(O)cc2)NC(=O)[C@H](Cc2ccccc2)NC(=O)[C@H](CC(=O)O)NC(=O)[C@H](CCC(=O)O)NC(=O)[C@@H]2CSCc3cc(cc(c3)CSC[C@H](NC(C)=O)C(=O)N[C@@H](Cc3ccc(O)cc3)C(=O)N[C@@H](CC(N)=O)C(=O)N[C@@H](CCC(=O)O)C(=O)N[C@@H](Cc3ccc(Cl)c(Cl)c3)C(=O)NCC(=O)N2)CSC[C@@H](C(N)=O)NC1=O [17-69-07-N137, Ac-(17-69-07) 3,4-DCPhe4]
- Kd (MT1-MMP hemopexin domain [3]; [5]): 1.85 ± 2.45 nM
